Test results as given in US20250057788A1, “COMPOSITIONS AND METHODS FOR TREATMENT OF CHRONIC PAIN AND DEPRESSION” (priority 2023, published 2025).
Where a name gives a salt, the structure may show the parent alone.

How the values were obtained:
[1] = system: formalin-induced pain (paw licking behavior); assay: Rat formalin test (paw licking, acute and delayed/chronic phase); type: in vivo; conditions: for Acute paw lick response, Mean / Chronic (delayed) paw lick response, Mean / delayed paw licking responses vs. control: 100 μM; for Acute paw lick response, Mean / Chronic (delayed) paw lick response, Mean / delayed paw licking responses vs. control / enhancement of the effects of ketamine 100 μM: Example 4; for Paw licking time, Acute, Mean / Paw licking time, Chronic, Mean: NaOH where added equimolar; for Paw licking time, Acute, Mean: acute phase 0-10 min after formalin; for Paw licking time, Chronic, Mean: delayed phase from 10 min after formalin; for enhancement of the effects of ketamine 100 μM: hydroxide combined with ketamine 100 μM; for delayed hind paw licking (marginal means), Mean: TAS2R ligand .5 mM
Procedure: In this test, effects are measured on both acute and delayed formalin-induced pain, as reflected in paw licking behavior.
Methods: All studies were performed at Psychogenics, Inc. (Tarrytown, NY). Male SD rats (Envigo) were used in the study. All rats were examined and weighed (about 200 g) prior to initiation of the study to assure adequate health and suitability. For the formalin test, rats were habituated for 30 min in observation chambers with cameras positioned underneath. After the pre-treatment time, animals received a subcutaneous injection into the plantar surface of the left hind-paw with 15 μl of 5% formalin using a Hamilton micro-syringe and a 30-gauge needle.
Rats were returned to the observation chamber and immediately observed for behavior. The total time spent licking, flinching or biting the treated hind-paw over the next 35 min was recorded and videos were scored by a trained observer blinded to the treatment group. The acute response was evaluated in 5 min intervals for 0-10 min, and the delayed response was evaluated from 10-35 or 10-40 min.
For this experiment, effects of ketamine alone vs. ketamine+NaOH were assessed at concentrations between 30 uM (μM) and […] vs. control. Secondary analyses evaluated relative effects of ketamine+NaOH vs. ketamine alone. Analyses were performed by between-group t-tests or multiway ANOVA as expected. For each experiment, outliers ±2SD from the group means were removed from the analyses as flagged in study reports.
Methods: Overall methods were the same as for Example 1. However, for this study, the concentration of ketamine was fixed at 100 μM across conditions, and the ratio of NaOH to ketamine was varied from 1:10 (0.1 ratio) to 1:2 (0.5 ratio) to 3:4 (0.75 ratio) to 1:1 (1.0 ratio). An ANOVA was conducted across ratios to determine statistical significance.
Methods: Formalin test methods were the same as for examples 1 and 2. […] Denatonium was additionally administered combined with Ketamine 100 μM.
In order to evaluate the specificity of the synergistic effect between ketamine and NaOH, formalin tests were evaluated in combination with other hydroxides, including Ca(OH)2 and KOH. […] Formalin tests were therefore conducted in the presence of 100 μM S-ketamine relative to racemic ketamine.

[2] = system: depression-related behaviors in SNL animals with chronic pain; assay: Forced swim test in spinal nerve ligation (SNL) rats; type: in vivo, rat; conditions: ketamine NaOH at 0.5 ratio, FIG. 5
From the text: Chronic pain may also lead to depressive symptoms that cause additional disability and may reflect an independent treatment target. Anti-depression effects may be modeled in rodents using behavioral measures including the forced swim test, which measures the time that rodents remain immobile when placed in water. In one model, chronic pain Is created by spinal nerve ligation (SNL) in which a ligation is placed around the left L5 nerve, which leads to hypersensitivity of the paw withdrawal threshold.
Methods: Male Sprague Dawley rats (about 150 g on arrival) from Envigo were used. Upon receipt animals were group housed for the remainder of their stay at PsychoGenics. […]
Spinal nerve ligation: Under general anesthesia with continuous inhalation of isoflurane, surgery was performed with aseptic procedures. […] Each rat was monitored until awake and moving freely around the recovery chamber. […]
Forced swim test: The forced swim (FS) test is considered to predict anti-depression effects. When rats are forced to swim in a small cylinder from which no escape is possible, they readily adopt a characteristic immobile posture and make no further attempts to escape except for small movements needed to prevent them from drowning. […] Immobility, climbing, and swimming behaviors were recorded every 5 sec for a total of 60 counts per subject. […]

CNC1(c2ccccc2Cl)CCCCC1=O (racemic) [Ketamine, Ketamine HCl]
Acute paw lick response, Mean [1]: 54.5 | Chronic (delayed) paw lick response, Mean [1]: 196.4 | delayed paw licking responses vs. control [1]: did not significantly reduce delayed responses | inhibition of delayed response ([1]; concentrations of ≥30 mM, all p<0.005): significant inhibition of delayed response | effects on acute response ([1]; doses of ≥100 mM, all p<0.001, suggesting non-specific behavioral effects): significant effects | Paw licking time, Acute, Mean ([1]; ketamine 30 μM): 55.20 s | Paw licking time, Chronic, Mean ([1]; ketamine 30 μM): 56.00 s | delayed response, post-hoc difference vs. control ([1]; ketamine 30 μM, one-way ANOVA): significant post-hoc differences vs. control | Paw licking time, Acute, Mean ([1]; ketamine 100 μM): 50.95 s | Paw licking time, Chronic, Mean ([1]; ketamine 100 μM): 140.71 s | Paw licking time, Acute, Mean ([1]; ketamine 300 μM): 40.50 s | Paw licking time, Chronic, Mean ([1]; ketamine 300 μM): 147.00 s | Paw licking time, Acute, Mean ([1]; ketamine 30 mM): 39.44 s | Paw licking time, Chronic, Mean ([1]; ketamine 30 mM): 49.88 s | Paw licking time, Acute, Mean ([1]; ketamine 100 mM): 0.11 s | Paw licking time, Chronic, Mean ([1]; ketamine 100 mM): 0.00 s | Paw licking time, Acute, Mean ([1]; ketamine 300 mM): 0.11 s | Paw licking time, Chronic, Mean ([1]; ketamine 300 mM): 0.00 s | immobility time [2]: significantly reduced immobility time | swimming time [2]: increased swimming time

[Ca+2].[OH-].[OH-] [Ca(OH)2]
enhancement of the effects of ketamine 100 μM [1]: Neither Ca(OH)2 or KOH enhanced

CC[N+](CC)(CC(=O)Nc1c(C)cccc1C)Cc1ccccc1 [Denatonium, Denatonium benzoate]
delayed hyperalgesic response vs. control ([1]; 0.5 mM, p=0.029): significant reduction in hyperalgesia | delayed hind paw licking (marginal means), Mean [1]: 161.0 s

[K+].[OH-] [KOH]
enhancement of the effects of ketamine 100 μM [1]: Neither Ca(OH)2 or KOH enhanced

C=C[C@H]1C[N@@]2CC[C@H]1C[C@@H]2[C@@H](O)c1ccnc2ccc(OC)cc12 [Quinidine, Quinidine gluconate]
delayed hind paw licking (marginal means), Mean [1]: 288.6 s

CN[C@]1(c2ccccc2Cl)CCCCC1=O [S-ketamine]
Acute paw lick response, Mean [1]: 50.5 | Chronic (delayed) paw lick response, Mean [1]: 120.6 | delayed paw licking responses vs. control [1]: numeric decreases in delayed paw licking vs. control, but the differences were not statistically significant
